Results as given in article PMC12990037, “Discovery of Two Structurally Distinct Classes of Inhibitors Targeting the Nuclease MUS81 and Enhancing Efficacy of Chemotherapy in Cancer Cells” (Journal of Medicinal Chemistry, 2026).

Legend:
[1] = tested on: U2OS cells; assay: Annexin V apoptotic assay; type: cell-based; settings: 3 days
Method: Given these promising findings, we further investigated the specificity of MU262 and MU876 and potential short-term cytotoxicity. To mirror the treatment duration used in BIR and HR assays, U2OS cells were exposed to the inhibitors or siRNA for 3 days.
U2OS WT cells (300,000) were seeded in a 6-well plate, a subset of them was treated with either control siRNA or siRNA targeting MUS81. After adhesion, cells were treated with the respective inhibitors for 72 h during which CPT (100 μM, Sigma-Aldrich) was added for the last 2 h. Cells were harvested, washed in ice-cold PBS, and collected by centrifugation at 500g for 5 min. Cells were simultaneously stained with FITC-labeled annexin V antibody (556419, Becton Dickinson) and PI (5 μL) at room temperature for 15 min, protected from light. Stained cells were analyzed using a BD FACSVerse flow cytometer (Becton Dickinson) and FlowJo software (BD Life Sciences). At least 20,000 cells were used for each measurement, and experiments were performed in duplicates.

[2] = tested on: U2OS cells; assay: Analysis of micronuclei; type: cell-based; settings: 48 h
Method: 5 Small-molecule inhibitors of MUS81 mimic the effect of siRNA-mediated MUS81 depletion in cells. (A) U2OS cells were treated with DMSO, MUS81-targeting siRNA, MU262, MU876, or their respective control analogues for 48 h. Cytochalasin B (1.25 μg/mL) was added 16 h before harvest to prevent cytokinesis. […] (B) Representative images corresponding to the selected conditions from (A). (C) U2OS and (D) HeLa cells were incubated with DMSO, the indicated inhibitors, and their respective control analogues for 48 h. Nocodazole (200 ng/mL) was added for 5 h prior to the end of treatment to arrest cells in mitosis. Mitotic cells were collected by shake-off, and telomere fragility events (TFEs) were quantified manually for each metaphase spread. At least 70 metaphase spreads were quantified per condition. n = 3; error bars represent s.d.; ***p < 0.001, ****p < 0.0001 (ordinary One-way ANOVA).
CAL51 WT and CAL51 MUS81^–/– cells were seeded in a 96-well plate 24 h before the treatment. Alternatively, cells were transfected with 30 nM siRNA (control or MUS81) for 48 h before treatment. Subsequently, cells were treated with respective inhibitors for 48 h. During the last 16 h, cytochalasin B (Sigma-Aldrich) was added to the cells at a concentration of 1.25 μg/mL. […] Images were acquired using a Nikon Eclipse fluorescence microscope and analyzed using ImageJ software.

[3] = Microsomal stability; type: in vitro ADME
[4] = tested on: EJ5-GFP cells; assay: I-SceI-based NHEJ repair reporter assay; type: cell-based; settings: 72 h
Method: 3 MUS81 inhibitors suppress HR and BIR. (A) I-SceI-based BIR repair efficiency was measured in U2OS BIR-GFP cells treated with DMSO, two different siRNAs targeting MUS81, or the indicated concentrations of MU262 and MU876, and their control analogues for 72 h. The percentage of repair was normalized to the DMSO-treated control (D). n = 3. Error bars represent standard deviation (s.d.); ****p <0.0001 (unpaired, two-tailed t-test). […] (C,D) I-SceI-based HR (C) and NHEJ (D) repair efficiency was measured using U2OS DR-GFP and EJ5-GFP cells, respectively, following treatment with DMSO, MU262,MU876, or their control analogues for 72 h. The percentage of repair was normalized to the DMSO-treated control. n = 3. Error bars represent s.d.; *p <0.05, **p <0.01, ****p <0.0001 (unpaired, two-tailed t-test).
Reporter DR-GFP and […] U2OS cells along with BIR-GFP cells were transfected with 2.5 μg of I-SceI-expressing pCAGGS vector and subsequently treated with MUS81 inhibitors at the indicated concentrations. After transfection (72 h), cells were trypsinized and resuspended in 3% BSA in PBS. GFP fluorescence detection was carried out using a BD FACSVerse flow cytometer, and the data were analyzed with FlowJo software (BD Life Sciences). Data presented in the graph were normalized to the DMSO-treated sample.

[5] = tested on: U2OS cells; assay: Colony formation assay (CFA); type: cell-based; settings: 10–12 days
Method: 6 MUS81 inhibition induces persistent DNA damage leading to reduced cell survival. (A) U2OS cells were treated with DMSO, cisplatin as a positive control, control or MUS81-targeting siRNA, MU262, MU876, and their negative control counterparts at the indicated concentrations for 72 h. Representative images show staining of a DNA damage marker γH2AX in green with counterstaining of DAPI in blue. The concentration of all inhibitors shown in (A) is 2.5 μM. (B) DNA damage was assessed by quantifying γH2AX foci per nucleus from (A) using CellProfiller software. The graph represents percentage (%) of cells with ≥20 γH2AX foci per nucleus across different concentrations of inhibitors. n = 3; error bars represent s.d. (C) Indicated number of U2OS cells was transfected with a nontargeting siRNA (siCon) or MUS81-targeting siRNA (siMUS81) seeded for a CFA. […] (D) Quantification of (C), error bars represent s.d.; ****p <0.0001 (unpaired, two-tailed t-test). […] (F) Quantification of (E) using a nonlinear regression fitting model. n = 3. […] (H) Quantification of (G) using a nonlinear regression fitting model. n = 3.
Cells were trypsinized, plated at the desired density in 6-well plates for colony forming assay, and then incubated for 10 days. […] The colonies were then solubilized using 10% acetic acid solution, and absorbance was measured with a plate reader. […]

Question: What does the source list for `Cc1cc(=O)[nH]c(-n2nc(-c3ccccc3)cc2NC(=O)c2cc(-c3ccccc3)on2)n1` [Compound 32, N-(1-(4-Methyl-6-oxo-1,6-dihydropyrimidin-2-yl)-3-phenyl-1H-pyrazol-5-yl)-5-phenylisoxazole-3-carboxamide]?
Answer: apoptosis (Annexin V staining) [1]: no increase in apoptosis; micronuclei formation [2]: significantly increased micronuclei formation; microsomal stability [3]: good microsomal stability; effect on NHEJ [4]: no negative effect; clonogenic cell survival [5]: significantly decreased cell survival

Question: What does the source list for `CCc1nn2c(O)c(-c3nc4ccccc4[nH]3)nnc2c1-c1ccc(F)cc1` [Compound 18, 3-(1H-Benzo[d]imidazole-2-yl)-7-ethyl-8-(4-fluorophenyl)pyrazolo[5,1-c][1,2,4]triazin-4-ol]?
Answer: apoptosis (Annexin V staining) [1]: no increase in apoptosis; micronuclei formation [2]: significantly increased micronuclei formation; microsomal stability [3]: good microsomal stability; effect on NHEJ [4]: no negative effect; clonogenic cell survival [5]: significantly decreased cell survival
